pKa, Kp and concentration data for seven compounds are collected here from ChEMBL document CHEMBL1955861, “Aminoimidazoles as BACE-1 inhibitors: the challenge to achieve in vivo brain efficacy” (Bioorg Med Chem Lett, 2012).

The nature of series [1]: Dissociation constant, pKa of the compound. It counts as physicochemical.
Series [2] can be described thus: Ratio of drug level in brain to plasma in C57BL/6 mouse at 300 umol/kg, po administered as single dose measured after […] by RPLC-MS/MS analysis. It counts as ADME, organism-based. As to conditions: read-out: BPR.
The nature of series [3]: Drug uptake in C57BL/6 mouse brain at 300 umol/kg, po administered as single dose 15 mins after GF120918 90 umol/kg, po measured after […] by RPLC-MS/MS analysis. It counts as ADME, organism-based. As to conditions: with GF120918 90 umol/kg po, read-out: Drug uptake.
The nature of series [4]: Ratio of drug level in brain to plasma in C57BL/6 mouse at 300 umol/kg, po administered as single dose 15 mins after GF120918 90 umol/kg, po measured after […] by RPLC-MS/MS analysis. Type of series: ADME, organism-based. The note with it: with GF120918 90 umol/kg po, read-out: BPR.

With `NC1=NC(c2ccncc2)(c2cccc(-c3cncnc3)c2)C2=NCCCN12` (centres undefined), in series [1], the pKa (usually the negative logarithm of the acid dissociation constant) was 7.6.

`COc1cccc(-c2cccc([C@]3(c4ccncc4)N=C(N)N4CC(F)(F)CN=C43)c2)c1F` yielded a pKa in series [1] of 5.3. In the case of `COc1ccc(C2(c3cccc(-c4cncnc4)c3)N=C(N)N3CC(F)(F)CN=C32)cc1` (centres undefined), the pKa in series [1] was determined as 6.8. In series [1], `NC1=NC(c2ccc(OC(F)F)cc2)(c2cccc(-c3cncnc3)c2)C2=NCC(F)(F)CN12` (centres undefined) showed a pKa of 6.1. In series [1], `COc1ccc(F)c(-c2cccc(C3(c4ccncc4)N=C(N)N4CC(F)(F)CN=C43)c2)c1` (centres undefined) gave a pKa of 5.9. On to `NC1=NC(c2ccc(OC(F)F)cc2)(c2cccc(OCCCF)c2)C2=NCC(F)(F)CN12` (centres undefined), for which the pKa in series [1] stood at 6.5. Regarding `NC1=N[C@](c2ccc(OC(F)F)cc2)(c2cccc(OCCCF)c2)C2=NCC(F)(F)CN12`, the Kp at […] in series [2] turned out to be 0.18; in series [4] it was 2.34. The concentration at […] in series [3] is 4 µM.
